Source: patent EP4656642A1, “ESTROGEN RECEPTOR PROTEOLYSIS TARGETING CHIMERA COMPOUND AND USE THEREOF” (GAN & LEE PHARM CO., LTD, priority 2023, dated 2024)
Where “and” joins values, the source holds several entries; their conditions need not be identical. Equal entries are not always repeated.

What was measured:
Assay type in all cases: cell-based
T-47D cells = experiment: Inhibition of cell proliferation in T-47D cells (CCK-8, 6 days); details: 6 days of treatment
Source text: Test Example 2: Inhibitory effect of the PROTAC compounds provided in the present disclosure on cell proliferation in T-47D cells (source ATCC)
The complete medium required for T-47D cells was 1640 ( ATCC, Product number: A10491-01) basal medium containing 10% fetal bovine serum. T-47D cells were inoculated in 96-well plates at a density of 3,000 cells/well, and different concentrations of the PROTAC compounds 1-55 provided in the examples of the present disclosure and a positive control sample ARV-471 (source: Innochem) were prepared to treat cells, and the cells were treated at 37°C in a cell culture incubator with 5% CO2 for 6 days. Cell viability was detected using a CCK-8 kit (Beyotime, Product number: C0040) according to the manufacturer's instructions. […] Table 2 IC50 values for inhibition of the proliferation of T-47D cells by the PROTAC compounds provided by the present disclosure and the positive control sample

ERα [1] = target: T1, ERα (Homo sapiens, UniProt P03372); experiment: Degradation of ERα in T-47D cells (immunoblotting, 4 h); design: host or cells: T-47D
T1 sequence (P03372 1-595): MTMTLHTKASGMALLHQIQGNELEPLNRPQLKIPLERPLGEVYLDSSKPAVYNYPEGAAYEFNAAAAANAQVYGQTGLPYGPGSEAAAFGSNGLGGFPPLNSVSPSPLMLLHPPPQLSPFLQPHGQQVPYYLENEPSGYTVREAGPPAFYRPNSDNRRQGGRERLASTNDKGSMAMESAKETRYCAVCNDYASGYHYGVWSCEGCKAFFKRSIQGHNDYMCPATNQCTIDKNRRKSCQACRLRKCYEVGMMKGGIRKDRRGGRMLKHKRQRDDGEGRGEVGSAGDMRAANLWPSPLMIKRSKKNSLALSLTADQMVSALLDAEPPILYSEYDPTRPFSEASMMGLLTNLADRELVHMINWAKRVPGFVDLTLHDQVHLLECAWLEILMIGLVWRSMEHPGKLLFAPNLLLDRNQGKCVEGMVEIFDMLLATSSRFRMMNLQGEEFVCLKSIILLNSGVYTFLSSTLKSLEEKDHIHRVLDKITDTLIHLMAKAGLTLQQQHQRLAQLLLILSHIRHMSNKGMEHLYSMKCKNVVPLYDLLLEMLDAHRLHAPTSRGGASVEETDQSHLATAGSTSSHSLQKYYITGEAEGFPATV
Summary of the method: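 ERα protein levels were assessed by immunoblot of RIPA lysates (with protease inhibitor) after 4 h exposure at 37°C. Compound was added in DMSO to T-47D cells at final concentrations of 0.15-1000 nM.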

ERα [2] = target: T1, ERα; experiment: Degradation of ERα in MCF-7 cells (immunoblotting, 4 h)
Summary of the method: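 Degradation rate reflects ERα band intensity, corrected to an internal reference protein, relative to control. Values come from Western blotting of lysates from MCF-7 cells exposed 4 h at 37°C to compounds at final concentrations of 0.15-1000nM.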

MCF-7 cells = experiment: Inhibition of cell proliferation of MCF-7 cells (CCK-8, 9 days); details: treated for 9 days, CCK-8 kit (Table 6)
Summary of the method: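 Read-out was CCK-8 viability after 9-day continuous exposure (37°C, 5% CO2) of MCF-7 cells plated at 800/well in 10% FBS DMEM across several compound concentrations. Values are proliferation IC50s.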

O=C1CCC(N2Cc3cc4c(cc3C2=O)CCC2(CN(CC3CCC5(CC3)CCN(c3ccc([C@@H]6c7ccc(O)cc7CC[C@@H]6c6ccccc6)cc3)CC5)C2)O4)C(=O)N1 (stereo partly drawn) [A3 8]
IC50 (T-47D cells; Table 3): 15 nM

O=C1CCC(N2C(=O)c3cc4c(cc3C2=O)OC2(CC4)CCN(CC3CCN(c4ccc(C5c6ccc(O)cc6CCC5c5ccccc5)cc4)C3)CC2)C(=O)N1 (stereo not drawn) [A9]
IC50 (T-47D cells; Table 2): 24 nM
Degradation rate (%) of ERα in T-47D cells (ERα [1]; 10nM compound): -25%
Degradation rate (%) of ERα in MCF-7 cells (ERα [2]; 10nM compound): -24%

O=C1CCC(N2C(=O)c3cc4c(cc3C2=O)C2(CCN(C3CCN(c5ccc(C6c7ccc(O)cc7CCC6c6ccccc6)cc5)CC3)CC2)CO4)C(=O)N1 (stereo not drawn) [A16]
IC50 (T-47D cells; Table 2): 91 nM
Degradation rate (%) of ERα in T-47D cells (ERα [1]; 10nM compound): -22%
Degradation rate (%) of ERα in MCF-7 cells (ERα [2]; 10nM compound): -5%

O=C1CCC(N2C(=O)c3cc4c(cc3C2=O)C2(CCN(C3CC5(CCN(c6ccc(C7c8ccc(O)cc8CCC7c7ccccc7)cc6)CC5)C3)CC2)CO4)C(=O)N1 (stereo not drawn) [A19]
IC50 (T-47D cells; Table 2): 20 nM
Degradation rate (%) of ERα in T-47D cells (ERα [1]; 10nM compound): 18%
Degradation rate (%) of ERα in MCF-7 cells (ERα [2]; 10nM compound): 18%

O=C1CCC(N2C(=O)c3cc4c(cc3C2=O)C2(CCN(CC3CCN(c5ccc(C6c7ccc(O)cc7CCC6c6ccccc6)cc5)C3)CC2)CO4)C(=O)N1 (stereo not drawn) [B1]
IC50 (T-47D cells; Table 2): 38 nM
Degradation rate (%) of ERα in T-47D cells (ERα [1]; 10nM compound): -15%
Degradation rate (%) of ERα in MCF-7 cells (ERα [2]; 10nM compound): -35%

O=C1CCC(N2C(=O)c3cc4c(cc3C2=O)C2(CCN(CC3CN(c5ccc([C@@H]6c7ccc(O)cc7CC[C@@H]6c6ccccc6)cc5)C3)CC2)CO4)C(=O)N1 (stereo partly drawn) [B3]
IC50 (T-47D cells; Table 2): 100 nM
Degradation rate (%) of ERα in T-47D cells (ERα [1]; 10nM compound): -18%
Degradation rate (%) of ERα in MCF-7 cells (ERα [2]; 10nM compound): -14%

O=C1CCC(N2Cc3c(ccc4c3OCC43CCN(C4CC5(CCC6(CC5)CN(C5CCN(c7ccc([C@@H]8c9ccc(O)cc9CC[C@@H]8c8ccccc8)cc7)CC5)C6)C4)CC3)C2=O)C(=O)N1 (stereo partly drawn) [K16]
IC50 (MCF-7 cells): 320 nM and 214 nM
IC50 (T-47D cells; Table 3): 3 nM

CC1CC(N2CCC3(CC2)COc2c3ccc3c2CN(C2CCC(=O)NC2=O)C3=O)CCN1C1CCN(c2ccc(C3c4ccc(O)cc4CCC3c3ccccc3)cc2)CC1 (stereo not drawn) [K22]
IC50 (MCF-7 cells): 24.3 nM
IC50 (T-47D cells; Table 3): 8.52 nM
Degradation rate (%) of ERα in T-47D cells (ERα [1]; 1nM compound): -3%
Degradation rate (%) of ERα in T-47D cells (ERα [1]; 10nM compound): 19%

O=C1CCC(N2Cc3cc4c(cc3C2=O)C2(CCN(C3CCC5(CC3)CCN(c3ccc([C@@H]6c7ccc(O)cc7CC[C@@H]6c6ccccc6)cc3)CC5)CC2)CO4)C(=O)N1 (stereo partly drawn) [L5]
IC50 (MCF-7 cells): 830 nM
Degradation rate (%) of ERα in T-47D cells (ERα [1]; 1nM compound): 12%
Degradation rate (%) of ERα in T-47D cells (ERα [1]; 10nM compound): 45%
Degradation rate (%) of ERα in MCF-7 cells (ERα [2]; 1nM compound): 6%
Degradation rate (%) of ERα in MCF-7 cells (ERα [2]; 10nM compound): 4%

O=C1CCC(N2Cc3ccc4c(c3C2=O)OCC2(CCN(C3CCC5(CC3)CN(c3ccc([C@@H]6c7ccc(O)cc7CC[C@@H]6c6ccccc6)cc3)C5)CC2)C4)C(=O)N1 (stereo partly drawn) [L6]
IC50 (MCF-7 cells): 930 nM
Degradation rate (%) of ERα in T-47D cells (ERα [1]; 1nM compound): 29%
Degradation rate (%) of ERα in T-47D cells (ERα [1]; 10nM compound): 68%
Degradation rate (%) of ERα in MCF-7 cells (ERα [2]; 1nM compound): 14%
Degradation rate (%) of ERα in MCF-7 cells (ERα [2]; 10nM compound): 45%

O=C1CCC(N2C(=O)c3ccc4c(c3C2=O)OCC42CCN(C3CCC4(CC3)CN(c3ccc([C@@H]5c6ccc(O)cc6CC[C@@H]5c5ccccc5)cc3)C4)CC2)C(=O)N1 (stereo partly drawn) [L7]
IC50 (MCF-7 cells): 510 nM
Degradation rate (%) of ERα in T-47D cells (ERα [1]; 1nM compound): 11%
Degradation rate (%) of ERα in T-47D cells (ERα [1]; 10nM compound): 34%
Degradation rate (%) of ERα in MCF-7 cells (ERα [2]; 1nM compound): 4%
Degradation rate (%) of ERα in MCF-7 cells (ERα [2]; 10nM compound): -4%

O=C1CCC(N2Cc3ccc4c(c3C2=O)OCC2(CCN(C3CC5(CCN(c6ccc([C@@H]7c8ccc(O)cc8CC[C@@H]7c7ccccc7)cc6)CC5)C3)CC2)C4)C(=O)N1 (stereo partly drawn) [L9]
IC50 (MCF-7 cells): 1420 nM
Degradation rate (%) of ERα in T-47D cells (ERα [1]; 1nM compound): 15%
Degradation rate (%) of ERα in T-47D cells (ERα [1]; 10nM compound): 49%
Degradation rate (%) of ERα in MCF-7 cells (ERα [2]; 1nM compound): 10%
Degradation rate (%) of ERα in MCF-7 cells (ERα [2]; 10nM compound): 29%
